In paper PMC9098913, “In vitro reconstitution of Escherichia coli divisome activation” (Nature Communications, 2022):

Assay: Diffusion coefficient (Dcoeff) of FtsA from FRAP
Conditions: for Diffusion Coefficient, mean: Fig. 3j
From the text: We could also use the data from these bleaching experiments to quantify the membrane-binding kinetics and diffusion of membrane-bound proteins by analysing the change of the fluorescence profile during recovery.
Equimolar concentrations of Cy3- and Cy5-labelled FtsA, supplemented with 20% unlabelled FtsA were used to study FRET and FRAP. Five pre-bleach frames were acquired, followed by acceptor photobleaching of a rectangular ROI with 40% 641 nm laser power and a dwell size of 1 µs/pixel, 75% overlapping lines. The recovery of the signal or the increase in donor intensity were measured with either two frames or one frame per second.
Bleaching the acceptor dye leads to an increase in the donor intensity, which can be used to quantify the Foerster Resonance energy transfer (FRET)[48]. FRET efficiency was quantified with E%=Ipost/Ipost+Ipre⋅100 , where Ipost is the intensity of the […] and Ipre is the […]. […] To extract the contribution of both processes, we adjusted a routine recently published by Gerganova et al.[33]. In short, the code provides the contribution of both modes of recovery by analysing the shape of the fluorescence recovery profile. […] Contribution of diffusion leads to a change of the slope of the outer borders of the bleached region (S4h right). Thus, by measuring the change of the slope of the border recovery, diffusion and simple on/off binding can be distinguished. We developed “FRAPdiff”, a graphical user interface, which uses the original fit routine by David Rutkowski. It can be used directly on.tiff movies with annotated bleach regions as ImageJ ROIs. In addition, we added optional bleach correction, user selectable projection axis (x or y), and optional mirroring of the recovery profiles, if bleaching was not symmetric. The original fit routine for estimating the recovery and diffusion dynamics can be found at https://github.com/davidmrutkowski/1DReflectingDiffusion. FRAPdiff is available at 10.5281/zenodo.6400639[49] under the GPLv3 open-source license.

## FtsA WT: wild-type E. coli actin-homologue FtsA, membrane anchor of FtsZ
0.1 µM FtsA + N
  Diffusion Coefficient, mean: 1.61E-02 µm2/s
0.1 µM FtsA + Z&N
  Diffusion Coefficient, mean: 1.18E-02 µm2/s
0.1 µM FtsA + Z
  Diffusion Coefficient, mean: 1.69E-02 µm2/s
0.1µM FtsA alone, Mean, n=18 (WT), 6 (R286W)
  Diffusion Coefficient: 0.0268
0.1 µM FtsA alone
  Diffusion Coefficient, mean: 2.68E-02 µm2/s
0.1µM FtsA alone, replicate Exp.1
  Diffusion Coefficient: 5.58E-02
0.1µM FtsA alone, replicate Exp.10
  Diffusion Coefficient: 2.60E-03
0.1µM FtsA alone, replicate Exp.11
  Diffusion Coefficient: 5.85E-03
0.1µM FtsA alone, replicate Exp.12
  Diffusion Coefficient: 4.68E-03
0.1µM FtsA alone, replicate Exp.13
  Diffusion Coefficient: 4.29E-02
0.1µM FtsA alone, replicate Exp.14
  Diffusion Coefficient: 3.12E-02
0.1µM FtsA alone, replicate Exp.15
  Diffusion Coefficient: 2.09E-02
0.1µM FtsA alone, replicate Exp.16
  Diffusion Coefficient: 1.45E-02
0.1µM FtsA alone, replicate Exp.17
  Diffusion Coefficient: 4.66E-02
0.1µM FtsA alone, replicate Exp.18
  Diffusion Coefficient: 2.25E-02
0.1µM FtsA alone, replicate Exp.2
  Diffusion Coefficient: 3.42E-03
0.1µM FtsA alone, replicate Exp.3
  Diffusion Coefficient: 1.87E-02
0.1µM FtsA alone, replicate Exp.4
  Diffusion Coefficient: 5.22E-02
0.1µM FtsA alone, replicate Exp.5
  Diffusion Coefficient: 2.45E-02
0.1µM FtsA alone, replicate Exp.6
  Diffusion Coefficient: 4.34E-02
0.1µM FtsA alone, replicate Exp.7
  Diffusion Coefficient: 4.83E-02
0.1µM FtsA alone, replicate Exp.8
  Diffusion Coefficient: 3.63E-02
0.1µM FtsA alone, replicate Exp.9
  Diffusion Coefficient: 8.38E-03
0.1µM, + FtsN&Z, Mean, n=5 (WT), 3 (R286W)
  Diffusion Coefficient: 0.0118
0.1µM, + FtsN&Z, replicate Exp.1
  Diffusion Coefficient: 3.37E-03
0.1µM, + FtsN&Z, replicate Exp.2
  Diffusion Coefficient: 5.52E-03
0.1µM, + FtsN&Z, replicate Exp.3
  Diffusion Coefficient: 9.34E-03
0.1µM, + FtsN&Z, replicate Exp.4
  Diffusion Coefficient: 2.03E-02
0.1µM, + FtsN&Z, replicate Exp.5
  Diffusion Coefficient: 2.02E-02
0.1µM, + FtsN, Mean, n=5 (WT), 3 (R286W)
  Diffusion Coefficient: 0.0161
0.1µM, + FtsN, replicate Exp.1
  Diffusion Coefficient: 2.03E-02
0.1µM, + FtsN, replicate Exp.2
  Diffusion Coefficient: 6.39E-04
0.1µM, + FtsN, replicate Exp.3
  Diffusion Coefficient: 1.18E-02
0.1µM, + FtsN, replicate Exp.4
  Diffusion Coefficient: 1.64E-02
0.1µM, + FtsN, replicate Exp.5
  Diffusion Coefficient: 3.14E-02
0.1µM, + FtsZ, Mean, n=8 (WT), 4 (R286W)
  Diffusion Coefficient: 0.0169
0.1µM, + FtsZ, replicate Exp.1
  Diffusion Coefficient: 1.01E-02
0.1µM, + FtsZ, replicate Exp.2
  Diffusion Coefficient: 2.79E-03
0.1µM, + FtsZ, replicate Exp.3
  Diffusion Coefficient: 1.71E-02
0.1µM, + FtsZ, replicate Exp.4
  Diffusion Coefficient: 3.53E-02
0.1µM, + FtsZ, replicate Exp.5
  Diffusion Coefficient: 2.97E-02
0.1µM, + FtsZ, replicate Exp.6
  Diffusion Coefficient: 3.44E-03
0.1µM, + FtsZ, replicate Exp.7
  Diffusion Coefficient: 2.52E-02
0.1µM, + FtsZ, replicate Exp.8
  Diffusion Coefficient: 1.14E-02
0.2 µM FtsA + N
  Diffusion Coefficient, mean: 1.32E-02 µm2/s
0.2 µM FtsA + Z&N
  Diffusion Coefficient, mean: 7.76E-03 µm2/s
0.2 µM FtsA + Z
  Diffusion Coefficient, mean: 8.12E-03 µm2/s
0.2µM FtsA alone, Mean, n=24 (WT), 6 (R286W)
  Diffusion Coefficient: 0.0177
0.2 µM FtsA alone
  Diffusion Coefficient, mean: 1.77E-02 µm2/s
0.2µM FtsA alone, replicate Exp.1
  Diffusion Coefficient: 1.00E-02
0.2µM FtsA alone, replicate Exp.10
  Diffusion Coefficient: 2.11E-07
0.2µM FtsA alone, replicate Exp.11
  Diffusion Coefficient: 2.08E-02
0.2µM FtsA alone, replicate Exp.12
  Diffusion Coefficient: 4.11E-02
0.2µM FtsA alone, replicate Exp.13
  Diffusion Coefficient: 2.52E-02
0.2µM FtsA alone, replicate Exp.14
  Diffusion Coefficient: 2.77E-02
0.2µM FtsA alone, replicate Exp.15
  Diffusion Coefficient: 1.77E-05
0.2µM FtsA alone, replicate Exp.16
  Diffusion Coefficient: 1.11E-02
0.2µM FtsA alone, replicate Exp.17
  Diffusion Coefficient: 1.44E-03
0.2µM FtsA alone, replicate Exp.18
  Diffusion Coefficient: 2.14E-02
0.2µM FtsA alone, replicate Exp.19
  Diffusion Coefficient: 1.18E-02
0.2µM FtsA alone, replicate Exp.2
  Diffusion Coefficient: 4.63E-02
0.2µM FtsA alone, replicate Exp.20
  Diffusion Coefficient: 1.47E-02
0.2µM FtsA alone, replicate Exp.21
  Diffusion Coefficient: 5.71E-03
0.2µM FtsA alone, replicate Exp.22
  Diffusion Coefficient: 9.23E-03
0.2µM FtsA alone, replicate Exp.23
  Diffusion Coefficient: 4.39E-06
0.2µM FtsA alone, replicate Exp.24
  Diffusion Coefficient: 1.05E-03
0.2µM FtsA alone, replicate Exp.3
  Diffusion Coefficient: 3.82E-02
0.2µM FtsA alone, replicate Exp.4
  Diffusion Coefficient: 2.69E-04
0.2µM FtsA alone, replicate Exp.5
  Diffusion Coefficient: 3.65E-02
0.2µM FtsA alone, replicate Exp.6
  Diffusion Coefficient: 2.63E-02
0.2µM FtsA alone, replicate Exp.7
  Diffusion Coefficient: 1.83E-02
0.2µM FtsA alone, replicate Exp.8
  Diffusion Coefficient: 5.09E-02
0.2µM FtsA alone, replicate Exp.9
  Diffusion Coefficient: 5.70E-03
0.2µM, + FtsN&Z, Mean, n=8 (WT), 6 (R286W)
  Diffusion Coefficient: 0.0078
0.2µM, + FtsN&Z, replicate Exp.1
  Diffusion Coefficient: 1.04E-02
0.2µM, + FtsN&Z, replicate Exp.2
  Diffusion Coefficient: 2.82E-03
0.2µM, + FtsN&Z, replicate Exp.3
  Diffusion Coefficient: 5.82E-03
0.2µM, + FtsN&Z, replicate Exp.4
  Diffusion Coefficient: 1.62E-02
0.2µM, + FtsN&Z, replicate Exp.5
  Diffusion Coefficient: 5.88E-03
0.2µM, + FtsN&Z, replicate Exp.6
  Diffusion Coefficient: 3.75E-03
0.2µM, + FtsN&Z, replicate Exp.7
  Diffusion Coefficient: 5.36E-03
0.2µM, + FtsN&Z, replicate Exp.8
  Diffusion Coefficient: 1.18E-02
0.2µM, + FtsN, Mean, n=7 (WT), 4 (R286W)
  Diffusion Coefficient: 0.0132
0.2µM, + FtsN, replicate Exp.1
  Diffusion Coefficient: 1.41E-02
0.2µM, + FtsN, replicate Exp.2
  Diffusion Coefficient: 1.35E-02
0.2µM, + FtsN, replicate Exp.3
  Diffusion Coefficient: 8.81E-03
0.2µM, + FtsN, replicate Exp.4
  Diffusion Coefficient: 1.88E-02
0.2µM, + FtsN, replicate Exp.5
  Diffusion Coefficient: 1.36E-02
0.2µM, + FtsN, replicate Exp.6
  Diffusion Coefficient: 1.15E-02
0.2µM, + FtsN, replicate Exp.7
  Diffusion Coefficient: 1.21E-02
0.2µM, + FtsZ, Mean, n=7 (WT), 6 (R286W)
  Diffusion Coefficient: 0.0081
0.2µM, + FtsZ, replicate Exp.1
  Diffusion Coefficient: 8.42E-03
0.2µM, + FtsZ, replicate Exp.2
  Diffusion Coefficient: 4.10E-03
0.2µM, + FtsZ, replicate Exp.3
  Diffusion Coefficient: 4.88E-04
